Results taken from US20030225152A1, “3-(Arylamino)methylene-1, 3-dihydro-2h-indol-2-ones as kinase inhibitors” (priority 2001, published 2003).

Tests used:
[1] = target: T1, cytoplasmic domain of the human VEGF receptor (VEGFR-2) (Homo sapiens, UniProt P35968); test: KDR Assay; format: biochemical; conditions: His-VEGFR-2; 3.6 μM ATP
T1 construct: The cytoplasmic domain of the human VEGF receptor (VEGFR-2) was expressed as a Histidine-tagged fusion protein; Histidine tag
In short: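 His-tagged human VEGFR-2 cytoplasmic domain from baculovirus-infected insect cells, acting on poly-Glu-Tyr (4:1)-coated plates with 3.6 μM ATP in Hepes pH 7.4 with MgCl2/MnCl2 and 5% final DMSO, 10 min at 25 °C. Phosphotyrosine detected by peroxidase-conjugated antibody ELISA at 492 nm; IC50 from blank-subtracted OD versus concentration.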

[2] = test system: VEGF induced increases in intracellular calcium levels in HUVEC (human umbilical vein endothelial cells); test: VEGF Stimulated Ca++ Signal in vitro (FLIPR); format: cell-based; conditions: VEGF 5 ng/mL; for IC50: 0.01 to 10.0 μM
In short: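 HUVEC loaded with Fluo-4 (45 min, 37° C.), washed, then pre-incubated 30 min with compound (10 μM single dose or 0.01–10.0 μM; 0.1% DMSO) before 5 ng/mL VEGF. Fluorescence at 516 nm read by FLIPR; IC50 from % inhibition of max-min VEGF response.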

T1 sequence (P35968 786-1356): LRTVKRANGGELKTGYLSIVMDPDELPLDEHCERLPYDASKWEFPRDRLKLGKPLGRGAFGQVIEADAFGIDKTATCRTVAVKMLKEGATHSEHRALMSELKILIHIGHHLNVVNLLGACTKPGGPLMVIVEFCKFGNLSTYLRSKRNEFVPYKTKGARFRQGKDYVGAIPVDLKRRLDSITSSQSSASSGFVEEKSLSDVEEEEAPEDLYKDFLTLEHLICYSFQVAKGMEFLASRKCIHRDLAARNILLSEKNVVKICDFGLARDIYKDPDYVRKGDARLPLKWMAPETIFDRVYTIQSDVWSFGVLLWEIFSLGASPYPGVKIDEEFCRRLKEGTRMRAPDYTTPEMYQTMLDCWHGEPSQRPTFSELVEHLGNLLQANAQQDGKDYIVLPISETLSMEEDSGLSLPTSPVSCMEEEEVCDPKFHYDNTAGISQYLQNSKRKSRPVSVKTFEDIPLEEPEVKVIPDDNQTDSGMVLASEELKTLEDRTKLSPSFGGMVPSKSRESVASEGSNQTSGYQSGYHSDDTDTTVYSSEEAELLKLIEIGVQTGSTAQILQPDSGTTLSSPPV

SMILES	IC50 [1]	inhibition at 10 µM ([2]; Homo sapiens)	IC50 ([2]; Homo sapiens)	IC50 [2]
O=C1Nc2ccc(F)cc2C1=CNc1ccc(CO)cc1 [Example 178, 5-Fluoro-3-[(4-hydroxymethyl-phenylamino)-methylene]-1,3-dihydro-indol-2-one]	530 nM	98.8%	1060 nM	
Nc1ccc(NC=C2C(=O)Nc3ccccc32)cc1 [Example 180, 3-[(4-Amino-phenylamino)-methylene]-1,3-dihydro-indol-2-one]	440 nM	98.3%	1030 nM	
CC(O)c1cccc(NC=C2C(=O)Nc3ccccc32)c1 (stereo not shown) [Example 182, 3-{[3-(1-Hydroxy-ethyl)-phenylamino]-methylene}-1,3-dihydro-indol-2-one]	1650 nM	99.3%	950 nM	
Cc1cccc2c1C(=CNc1cccc(C(C)O)c1)C(=O)N2 (stereo not shown) [Example 183, 3-{[3-(1-Hydroxy-ethyl)-phenylamino]-methylene}-4-methyl-1,3-dihydro-indol-2-one]	520 nM	98.9%	≤ 1000 nM	750 nM
O=C1Nc2ccccc2C1=CNc1cccc(CO)c1 [Example 184, 3-[(3-Hydroxymethyl-phenylamino)-methylene]-1,3-dihydro-indol-2-one]	610 nM	98.2%	1560 nM	
Cc1cccc2c1C(=CNc1cccc(CO)c1)C(=O)N2 [Example 185, 3-[(3-Hydroxymethyl-phenylamino)-methylene]-4-methyl-1,3-dihydro-indol-2-one]	330 nM	98.4%	≤ 1000 nM	870 nM
CC(C)(C)OC(=O)Nc1ccc(NC=C2C(=O)Nc3ccccc32)cc1 [Example 186, {4-[(2-Oxo-1,2-dihydro-indol-3-ylidenemethyl)-amino]-phenyl}-carbamic acid tert-butyl ester]	890 nM	99%	1920 nM	
Cc1cccc2c1C(=CNc1ccc(NC(=O)OC(C)(C)C)cc1)C(=O)N2 [Example 187, {4-[(4-Methyl-2-oxo-1,2-dihydro-indol-3-ylidenemethyl)-amino]-phenyl}-carbamic acid tert-butyl ester]	270 nM	96.8%	1670 nM	
CCN(CC)c1ccc(NC=C2C(=O)Nc3ccccc32)cc1 [Example 188, 3-[(4-Diethylamino-phenylamino)-methylene]-1,3-dihydro-indol-2-one]	180 nM	98%	≤ 1000 nM	530 nM
CCN(CC)c1ccc(NC=C2C(=O)Nc3cccc(C)c32)cc1 [Example 189, 3-[(4-Diethylamino-phenylamino)-methylene]-4-methyl-1,3-dihydro-indol-2-one]	70 nM	98.2%		
O=C1Nc2ccccc2C1=CNc1cccc(S(=O)(=O)N(CCO)CCO)c1 [Example 190, N,N-Bis-(2-hydroxy-ethyl)-3-[(2-oxo-1,2-dihydro-indol-3-ylidenemethyl)-amino]-benzenesulfonamide]	6960 nM	54.1%	9990 nM	
Cc1cccc2c1C(=CNc1cccc(S(=O)(=O)N(CCO)CCO)c1)C(=O)N2 [Example 191, N,N-Bis-(2-hydroxy-ethyl)-3-[(4-methyl-2-oxo-1,2-dihydro-indol-3-ylidenemethyl)-amino]-benzenesulfonamide]	700 nM	98.7%	2410 nM	
O=C1Nc2ccccc2C1=CNc1ccc(S(=O)(=O)NCCO)cc1 [Example 192, N-(2-Hydroxy-ethyl)-4-[(2-oxo-1,2-dihydro-indol-3-ylidenemethyl)-amino]-benzenesulfonamide]	590 nM	98.7%	1530 nM	
O=C1Nc2ccccc2C1=CNc1cccc(S(=O)(=O)NCCCO)c1 [Example 193, N-(3-Hydroxy-propyl)-3-[(2-oxo-1,2-dihydro-indol-3-ylidenemethyl)-amino]-benzenesulfonamide]	2470 nM	81.5%	4770 nM	
Cc1cccc2c1C(=CNc1cccc(S(=O)(=O)NCCCO)c1)C(=O)N2 [Example 194, N-(3-Hydroxy-propyl)-3-[(4-methyl-2-oxo-1,2-dihydro-indol-3-ylidenemethyl)-amino]-benzenesulfonamide]	660 nM	96.9%	2670 nM	
O=C1Nc2ccccc2C1=CNc1ccc(N2CCOCC2)c(C(=O)O)c1 [Example 195, 2-Morpholin-4-yl-5-[(2-oxo-1,2-dihydro-indol-3-ylidenemethyl)-amino]-benzoic acid]	960 nM	91.1%	4670 nM	
O=C1Nc2ccccc2C1=CNc1ccc(OCCCCCl)cc1 [Example 199, 3-{[4-(4-Chloro-butoxy)-phenylamino]-methylene}-1,3-dihydro-indol-2-one]	290 nM	32.4%		
O=C1Nc2ccccc2C1=CNc1ccc(OCCCCN2CCSCC2)cc1 [Example 226, 3-{[4-(4-Thiomorpholin-4-yl-butoxy)-phenylamino]-methylene}-1,3-dihydro-indol-2-one]	280 nM	98%	≤ 1000 nM	700 nM

More lines, main results first:

IC50 [1]	SMILES	inhibition at 10 µM ([2]; Homo sapiens)	IC50 ([2]; Homo sapiens)	IC50 [2]
50 nM	Cc1cccc2c1C(=CNc1ccc(C(=S)N3CCOCC3)cc1)C(=O)N2 [Example 196, 4-Methyl-3-{[4-(1-morpholin-4-yl-methanethiol)-phenylamino]-methylene}-1,3-dihydro-indol-2-one]	73.1%	≤ 1000 nM	770 nM
90 nM	Cc1cccc2c1C(=CNc1ccc(S(=O)(=O)NCCO)cc1)C(=O)N2 [Example 197, N-(2-Hydroxy-ethyl)-4-[(4-methyl-2-oxo-1,2-dihydro-indol-3-ylidenemethyl)-amino]-benzenesulfonamide]	98.1%		
470 nM	O=C1Nc2ccccc2C1=CNc1ccc(OCCCCl)cc1 [Example 198, 3-{[4-(3-Chloro-propoxy)-phenylamino]-methylene}-1,3-dihydro-indol-2-one]	56.3%	7920 nM	
740 nM	O=C1Nc2ccccc2C1=CNc1ccc(OCCCI)cc1 [Example 200, 3-{[4-(3-Iodo-propoxy)-phenylamino]-methylene}-1,3-dihydro-indol-2-one]	75.2%	3480 nM	
170 nM	Cc1cccc2c1C(=CNc1cccc(N)c1)C(=O)N2 [Example 210, 3-[(3-Amino-phenylamino)-methylene]-4-methyl-1,3-dihydro-indol-2-one]	97.4%		
500 nM	Cc1ccc(NC=C2C(=O)Nc3ccccc32)cc1N [Example 212, 3-[(3-Amino-4-methyl-phenylamino)-methylene]-1,3-dihydro-indol-2-one]	96.5%	≤ 1000 nM	820 nM
150 nM	Cc1ccc(NC=C2C(=O)Nc3cccc(C)c32)cc1N [Example 213, 3-[(3-Amino-4-methyl-phenylamino)-methylene]-4-methyl-1,3-dihydro-indol-2-one]	95%	≤ 1000 nM	650 nM
280 nM	CN1CCN(CCCOc2ccc(NC=C3C(=O)Nc4ccccc43)cc2)CC1 [Example 217, 3-({4-[3-(4-Methyl-piperazin-1-yl)-propoxy]-phenylamino}-methylene)-1,3-dihydro-indol-2-one]	97.7%	≤ 1000 nM	860 nM
470 nM	COc1ccc(NC=C2C(=O)Nc3ccc(F)cc32)cc1 [Example 222, 5-Fluoro-3-[(4-methoxy-phenylamino)-methylene]-1,3-dihydro-indol-2-one]	48.8%		
2270 nM	O=C(O)Cc1ccc(NC=C2C(=O)Nc3ccccc32)cc1 [Example 224, 3-[(4-Carboxymethylphenylamino)-methylene]-1,3-dihydro-indol-2-one]	56.2%	6310 nM	
290 nM	O=C1Nc2ccccc2C1=CNc1ccc(OCCCN2CCSCC2)cc1 [Example 225, 3-{[4-(3-Thiomorpholin-4-yl-propoxy)-phenylamino]-methylene}-1,3-dihydro-indol-2-one]	95.7%	≤ 1000 nM	560 nM
50 nM	Cc1cccc2c1C(=CNc1ccc(N3CCOCC3)cc1)C(=O)N2 [Example 227, 4-Methyl-3-[(4-morpholin-4-yl-phenylamino)-methylene]-1,3-dihydro-indol-2-one]	85.9%		
80 nM	O=C1Nc2cc(F)ccc2C1=CNc1ccc(N2CCOCC2)cc1 [Example 228, 6-Fluoro-3-[(4-morpholin-4-yl-phenylamino)-methylene]-1,3-dihydro-indol-2-one]	97.2%		
80 nM	CN1CCN(c2ccc(NC=C3C(=O)Nc4cc(F)ccc43)cc2)CC1 [Example 230, 6-Fluoro-3-{[4-(4-methyl-piperazin-1-yl)-phenylamino]-methylene}-1,3-dihydro-indol-2-one]	96.4%		
